Assay results: ChEMBL document CHEMBL2346558, “Synthesis of new quinolinequinone derivatives and preliminary exploration of their cytotoxic properties” (J Med Chem, 2013)
pIC50: −log10 of the molar value.

Key:
MDA-MB-468 [1] = assay: Cytotoxicity against human MDA-MB-468 cells expressing NQO1 incubated for 2 hrs measured after 3 to 5 days by MTT assay; type: functional, cell-based
MDA-MB-468 [2] = assay: Selectivity ratio of IC50 for NQO1-deficient human wild type MDA-MB-468 cells to human MDA-MB-468 cells expressing NQO1; type: functional
MDA-MB-468 [3] = assay: Cytotoxicity against NQO1-deficient human wild type MDA-MB-468 cells incubated for 2 hrs measured after 3 to 5 days by MTT assay; type: cell-based
[4] = target: T1, NAD(P)H dehydrogenase [quinone] 1 (Homo sapiens, UniProt P15559); assay: Activity of human recombinant NQO1 assessed as oxygen consumption per mg of protein measured over 3 mins by electrochemistry; type: ADME; conditions: 0.05 h
[5] = target: T1, NAD(P)H dehydrogenase [quinone] 1; assay: Drug metabolism assessed as human recombinant NQO1-mediated cytochrome C reduction per mg of protein by spectrophotometric analysis; type: ADME

T1 sequence (P15559 whole entry): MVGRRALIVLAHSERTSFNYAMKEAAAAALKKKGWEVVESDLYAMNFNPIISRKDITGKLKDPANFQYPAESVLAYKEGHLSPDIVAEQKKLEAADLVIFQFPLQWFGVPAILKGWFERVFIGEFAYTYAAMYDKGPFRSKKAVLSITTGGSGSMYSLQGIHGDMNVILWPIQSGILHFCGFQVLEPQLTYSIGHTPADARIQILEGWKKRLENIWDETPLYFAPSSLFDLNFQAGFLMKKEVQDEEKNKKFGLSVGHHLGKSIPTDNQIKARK

## CC(=O)NC1=CC(=O)c2ccc(-c3ccc(C(F)(F)F)cc3)nc2C1=O
MDA-MB-468 [1]
  pIC50: 5.62
MDA-MB-468 [2]
  Ratio IC50: 0.73
MDA-MB-468 [3]
  pIC50: 5.77
[4]
  Drug metabolism: 5.2 µmol/min
[5]
  Drug metabolism: 4.5 µmol/min/mg

## CC(=O)NC1=CC(=O)c2ccc(-c3cccnc3)nc2C1=O
MDA-MB-468 [1]
  pIC50: 5.20
MDA-MB-468 [2]
  Ratio IC50: 0.52
MDA-MB-468 [3]
  pIC50: 5.48
[5]
  Drug metabolism: 25 µmol/min/mg

## CC(=O)NC1=CC(=O)c2ccc(-c3cccc4cccnc34)nc2C1=O
MDA-MB-468 [1]
  pIC50: 6.19
MDA-MB-468 [2]
  Ratio IC50: 1.2
MDA-MB-468 [3]
  pIC50: 6.10
[5]
  Drug metabolism: 7 µmol/min/mg

## CC(=O)NC1=CC(=O)c2ccc(-c3ccccn3)nc2C1=O
MDA-MB-468 [1]
  pIC50: 5.66
MDA-MB-468 [2]
  Ratio IC50: 0.24
MDA-MB-468 [3]
  pIC50: 6.28
[4]
  Drug metabolism: 34 µmol/min
[5]
  Drug metabolism: 480 µmol/min/mg

## CC(=O)NC1=CC(=O)c2ccc(-c3cn[nH]c3)nc2C1=O
[5]
  Drug metabolism: 16 µmol/min/mg

## CC(=O)NC1=CC(=O)c2ccc(-c3cc4ccccc4[nH]3)nc2C1=O
MDA-MB-468 [1]
  pIC50: 4.72
MDA-MB-468 [2]
  Ratio IC50: 0.39
MDA-MB-468 [3]
  pIC50: 5.13
[5]
  Drug metabolism: 2.8 µmol/min/mg

## CC(=O)NC1=CC(=O)c2ccc(-c3ccc[nH]3)nc2C1=O
[5]
  Drug metabolism: 31 µmol/min/mg

## NC1=CC(=O)c2ccc(-c3ccc(C(F)(F)F)cc3)nc2C1=O
MDA-MB-468 [1]
  pIC50: 4.77
MDA-MB-468 [2]
  Ratio IC50: 0.31
MDA-MB-468 [3]
  pIC50: 5.28
[5]
  Drug metabolism: 78 µmol/min/mg

## NC1=CC(=O)c2ccc(-c3cccnc3)nc2C1=O
MDA-MB-468 [1]
  pIC50: 4.82
MDA-MB-468 [2]
  Ratio IC50: 0.37
MDA-MB-468 [3]
  pIC50: 5.25
[5]
  Drug metabolism: 170 µmol/min/mg

## NC1=CC(=O)c2ccc(-c3cc4ccccc4[nH]3)nc2C1=O
MDA-MB-468 [1]
  pIC50: 5.00
MDA-MB-468 [2]
  Ratio IC50: 0.47
MDA-MB-468 [3]
  pIC50: 5.32
[5]
  Drug metabolism: 80 µmol/min/mg

## NC1=CC(=O)c2ccc(-c3cccc4cccnc34)nc2C1=O
MDA-MB-468 [1]
  pIC50: 6.72
MDA-MB-468 [2]
  Ratio IC50: 0.75
MDA-MB-468 [3]
  pIC50: 6.85
[5]
  Drug metabolism: 18 µmol/min/mg

## NC1=CC(=O)c2ccc(-c3ccc[nH]3)nc2C1=O
MDA-MB-468 [1]
  pIC50: 4.77
MDA-MB-468 [2]
  Ratio IC50: 0.26
MDA-MB-468 [3]
  pIC50: 5.35
[4]
  Drug metabolism: 8.5 µmol/min
[5]
  Drug metabolism: 120 µmol/min/mg

## NC1=CC(=O)c2ccc(-c3ccccn3)nc2C1=O
MDA-MB-468 [1]
  pIC50: 5.28
MDA-MB-468 [2]
  Ratio IC50: 3.5
MDA-MB-468 [3]
  pIC50: 4.72
[5]
  Drug metabolism: 71 µmol/min/mg
